Measurements reported in article PMC8208304 (2021).

Key:
[1] = system: S1 + S2 (split ATP aptamer / split G-quadruplex receptor) (DNA, aptamer, internal C12 spacer (iSpC12) after position 12 of strand 1 and after position 16 of strand 2) TGGGTGGGTTTTTTTACCTGGGGGAGTAT/TGCGGAGGAAGGTTTTTTTAGGGCGGGT; assay: G4-hemin peroxidase activity (Amplex Red) in LUVs; details: ATP 0-1.0 mM; hemin 4 μM; 100 mM Tris-HCl pH 7.0; functional readout
[2] = system: S1 + S2 (split ATP aptamer / split G-quadruplex receptor) (DNA, aptamer, internal C12 spacer (iSpC12) after position 12 of strand 1 and after position 16 of strand 2) TGGGTGGGTTTTTTTACCTGGGGGAGTAT/TGCGGAGGAAGGTTTTTTTAGGGCGGGT; assay: ThT fluorescence enhancement at 504 nm; details: 2.2-fold with 1.0 mM ATP; ThT 20 μM; 1.0 μM strands; 100 mM Tris-HCl pH 7.4
[3] = system: S1 + S2 (split ATP aptamer / split G-quadruplex receptor) (DNA, aptamer, internal C12 spacer (iSpC12) after position 12 of strand 1 and after position 16 of strand 2) TGGGTGGGTTTTTTTACCTGGGGGAGTAT/TGCGGAGGAAGGTTTTTTTAGGGCGGGT; assay: G4-hemin Amplex Red peroxidase fluorescence in LUVs; details: 100 mM Tris-HCl pH 7.0; functional readout; used instead of ATP; concentration not given
[4] = system: S1 + S2 (split ATP aptamer / split G-quadruplex receptor) (DNA, aptamer, internal C12 spacer (iSpC12) after position 12 of strand 1 and after position 16 of strand 2) TGGGTGGGTTTTTTTACCTGGGGGAGTAT/TGCGGAGGAAGGTTTTTTTAGGGCGGGT; assay: SYBR Green I fluorescence melting; details: derived from two Tm (46.2 to 55.0 °C); 1.0 mM ATP; 1.0 μM strands; 100 mM Tris-HCl pH 7.4
[5] = system: FAM-S1 + TAMRA-S2 (DNA, aptamer, internal C12 spacer (iSpC12) after position 11 of strand 1 and after position 16 of strand 2) TGGGTGGGTTTTTTACCTGGGGGAGTAT/TGCGGAGGAAGGTTTTTTTAGGGCGGGT; assay: FRET in LUVs; details: ATP 0-1.0 mM; FAM-S1:TAMRA-S2 1:5; Fa/Fd 0.4 to 0.5

Question: For `C=CC1=C(C)C2=Cc3c(C=C)c(C)c4[n]3[Fe]([Cl])[n]3c(c(C)c(CCC(=O)O)c3=CC3=NC(=C4)C(C)=C3CCC(=O)O)=CC1=N2`, which binding [1] is on record?
Answer: Its binding is “yes”.

Question: `Cc1ccc2c(c1)sc(-c1ccc(N(C)C)cc1)[n+]2C` was tested. Which binding [2] did it give?
Answer: The binding was “yes”.

Question: For `Nc1ccn([C@@H]2O[C@H](CO)[C@@H](O)[C@H]2O)c(=O)n1`, which binding [3] is on record?
Answer: The binding was “no”.

Question: With `Nc1nc2c(ncn2[C@@H]2O[C@H](CO)[C@@H](O)[C@H]2O)c(=O)[nH]1` as the molecule, how does the binding [3] read?
Answer: The binding was “no”.

Question: For `Nc1ncnc2c1ncn2[C@@H]1O[C@H](COP(=O)(O)OP(=O)(O)OP(=O)(O)O)[C@@H](O)[C@H]1O`, which “ΔTm (melting temperature shift)” value [4] is on record?
Answer: Its value is 8.8 °C.

Question: And the binding [5]?
Answer: The binding was “yes”.

Question: `O=c1ccn([C@@H]2O[C@H](CO)[C@@H](O)[C@H]2O)c(=O)[nH]1` was tested. Which binding [3] did it give?
Answer: Its binding is “no”.
